“And” between values parts separate entries of the source, which are not always exact repeats. Equal values may be shown once.
Target: T1, Na-K-ATPase (Bos taurus, UniProt Q08DA1)
T1 construct: 86Rb uptake
Assay: Microassay: inhibition of ^86 Rb uptake by MDBK cell cultures
Assay type: cell-based, bovine
From the text: Such a cell line is available from the American Type Culture Collection, 12301 Park Lawn Drive, Rockville, Md. 20852. USA, where it is identified by the reference ATCC CCL34 (certified cell line). The preferred method of assaying bioactivity according to the present invention, described in Example II below, employs a microassay which is based upon the ability of the natriuretic compound of the present invention to inhibit ^86 Rb influx by MDBK cells grown in culture. Ouabain (10^-5 M) is used as the reference inhibitor.
The natriuretic activity of the Natriuretic Hormone can be ascertained by its effect on the uptake of ^86 Rb by MDBK ([…] Bovine Kidney Cell) cultures. […]
Approximately 200,000 MDBK cells were plated in trays containing 12 […] wells, and grown for four days at 37° C. in Dulbecco's modified Eagle media (DMEM) (Gibco #430-2100), to which was added (per liter) 3.7 g sodium bicarbonate, 5 mg phenol red, 10% fetal calf serum, 10^6 units penicillin-G sulfate, 0.1 g equivalent base streptomycin sulfate, 7.34 mg polymyxin-B sulfate, and 3.4 mg fungizone and maintained in an atmosphere of 5% CO2, 95% air. […] 0.5 ml of 5% TCA was added to each well and incubated for 10 minutes at 37° C. to release radioactivity inside the cells. […] The ^86 Rb activity was counted in a scintillation counter (Beckman LS 3-801). […] Data were recorded as cpm/mg cell protein. […]

C[C@@H]1O[C@@H](O[C@H]2C[C@@H](O)[C@]3(CO)[C@H]4[C@H](O)C[C@]5(C)[C@@H](C6=CC(=O)OC6)CC[C@]5(O)[C@@H]4CC[C@]3(O)C2)[C@H](O)[C@H](O)[C@H]1O [Ouabain]
^86 Rb uptake, cpm/mg of protein (10^-5 M ouabain, positive control, run in duplicate): 17,649 cpm/mg of protein and 15,611 cpm/mg of protein | inhibition at 10 µM (MDBK, read-out: % inhibition of ^86 Rb uptake): 77.7%

From patent publication US5422393A, “Natriuretic hormone” (Naturon Pharmaceutical Corporation, priority 1993, dated 1995)
